As usually defined, the Ki is a dissociation constant, usually derived from enzyme kinetics or from competition with a known ligand.

Among the targets are Mu-type opioid receptor (Rattus norvegicus, UniProt P33535); Adenosine receptor A2a (Rattus norvegicus, UniProt P30543); D(1A) dopamine receptor (Rattus norvegicus, UniProt P18901); D(2) dopamine receptor (Rattus norvegicus, UniProt P61169).
For assay [1], the target named is T1, 5-hydroxytryptamine receptor 2C (Sus scrofa, UniProt G7ZKZ7).
T1 sequence (G7ZKZ7 whole entry): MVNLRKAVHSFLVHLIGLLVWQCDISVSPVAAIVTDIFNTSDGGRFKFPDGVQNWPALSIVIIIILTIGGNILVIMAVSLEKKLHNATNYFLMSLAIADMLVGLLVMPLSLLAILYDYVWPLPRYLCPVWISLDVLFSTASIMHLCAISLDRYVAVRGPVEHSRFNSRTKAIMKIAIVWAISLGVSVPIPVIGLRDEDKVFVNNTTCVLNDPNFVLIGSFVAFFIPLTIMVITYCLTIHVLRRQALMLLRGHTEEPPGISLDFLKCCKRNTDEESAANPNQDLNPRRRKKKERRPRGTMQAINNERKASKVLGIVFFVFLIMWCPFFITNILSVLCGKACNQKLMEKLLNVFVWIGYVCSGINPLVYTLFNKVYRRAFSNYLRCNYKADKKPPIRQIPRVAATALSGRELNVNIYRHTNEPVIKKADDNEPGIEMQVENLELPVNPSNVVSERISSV

Assay [2] concerns the target 5-hydroxytryptamine 1D receptor (Bos taurus, UniProt Q8MI13).
Assay [3] addresses T2, Alpha-1A adrenergic receptor (Rattus norvegicus, UniProt P43140).
T2 sequence (P43140 whole entry): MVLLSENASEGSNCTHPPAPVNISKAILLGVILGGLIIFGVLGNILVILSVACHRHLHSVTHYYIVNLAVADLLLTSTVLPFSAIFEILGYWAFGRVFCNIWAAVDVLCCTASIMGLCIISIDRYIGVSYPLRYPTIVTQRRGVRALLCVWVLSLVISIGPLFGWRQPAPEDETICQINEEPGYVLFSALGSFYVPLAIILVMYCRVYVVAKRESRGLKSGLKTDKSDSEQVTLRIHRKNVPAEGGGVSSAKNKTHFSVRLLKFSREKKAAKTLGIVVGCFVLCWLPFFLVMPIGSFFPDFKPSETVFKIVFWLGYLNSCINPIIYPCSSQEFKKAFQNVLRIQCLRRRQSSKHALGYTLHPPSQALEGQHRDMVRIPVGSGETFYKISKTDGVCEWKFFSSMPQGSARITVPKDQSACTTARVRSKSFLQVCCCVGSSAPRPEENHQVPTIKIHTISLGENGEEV

The target in the next assay is T3, Adenosine receptor A1 (Rattus norvegicus, UniProt P25099).
T3 sequence (P25099 whole entry): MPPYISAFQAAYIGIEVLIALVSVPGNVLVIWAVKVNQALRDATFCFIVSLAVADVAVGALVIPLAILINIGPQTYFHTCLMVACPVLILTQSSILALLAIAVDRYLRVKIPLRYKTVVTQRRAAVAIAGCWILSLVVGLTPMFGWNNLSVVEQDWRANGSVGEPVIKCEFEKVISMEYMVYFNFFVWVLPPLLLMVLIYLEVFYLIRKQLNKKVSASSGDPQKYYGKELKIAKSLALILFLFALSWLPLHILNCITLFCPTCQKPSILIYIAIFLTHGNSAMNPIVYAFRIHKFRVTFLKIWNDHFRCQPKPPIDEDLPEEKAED

Assay [4] addresses Substance-P receptor (Rattus norvegicus) (UniProt P14600).
Assay [5] addresses 5-hydroxytryptamine receptor 2A (Rattus norvegicus, UniProt P14842).
For assay [6], the target named is Kappa-type opioid receptor (Rattus norvegicus, UniProt P34975).
Chain of Kappa-type opioid receptor (P34975 whole entry): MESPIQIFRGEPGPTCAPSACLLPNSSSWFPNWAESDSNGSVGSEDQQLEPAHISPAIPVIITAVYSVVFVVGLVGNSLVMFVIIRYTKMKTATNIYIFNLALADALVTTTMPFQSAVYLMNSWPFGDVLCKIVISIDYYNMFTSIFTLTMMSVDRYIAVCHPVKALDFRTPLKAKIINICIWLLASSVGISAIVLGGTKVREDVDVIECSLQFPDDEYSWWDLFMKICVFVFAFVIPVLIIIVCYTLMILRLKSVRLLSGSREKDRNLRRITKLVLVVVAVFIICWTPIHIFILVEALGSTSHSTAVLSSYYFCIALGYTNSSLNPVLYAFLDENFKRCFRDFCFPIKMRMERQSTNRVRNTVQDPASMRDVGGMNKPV
The target in assay [7] is Muscarinic acetylcholine receptor M3 (Rattus norvegicus, UniProt P08483).
Chain of Muscarinic acetylcholine receptor M3 (P08483 whole entry): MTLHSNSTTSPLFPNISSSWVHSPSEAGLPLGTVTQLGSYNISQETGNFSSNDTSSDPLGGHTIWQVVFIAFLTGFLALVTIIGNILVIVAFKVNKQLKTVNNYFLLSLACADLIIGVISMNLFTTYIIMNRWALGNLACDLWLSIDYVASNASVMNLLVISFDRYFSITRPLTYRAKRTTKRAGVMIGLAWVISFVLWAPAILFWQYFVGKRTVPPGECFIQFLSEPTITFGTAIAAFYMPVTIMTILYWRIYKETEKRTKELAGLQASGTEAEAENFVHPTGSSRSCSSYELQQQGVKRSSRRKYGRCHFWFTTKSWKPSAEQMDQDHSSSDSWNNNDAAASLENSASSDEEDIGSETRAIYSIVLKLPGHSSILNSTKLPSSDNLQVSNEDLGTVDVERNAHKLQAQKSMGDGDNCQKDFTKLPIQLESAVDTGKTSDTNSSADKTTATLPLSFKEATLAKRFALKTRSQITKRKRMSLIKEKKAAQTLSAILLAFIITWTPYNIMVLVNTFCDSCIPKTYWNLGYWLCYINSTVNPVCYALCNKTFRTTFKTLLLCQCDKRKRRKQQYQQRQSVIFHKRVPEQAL
For assay [8], the target named is Gamma-aminobutyric acid receptor subunit alpha-1 (Rattus norvegicus, UniProt P62813).
Chain of Gamma-aminobutyric acid receptor subunit alpha-1 (P62813 whole entry): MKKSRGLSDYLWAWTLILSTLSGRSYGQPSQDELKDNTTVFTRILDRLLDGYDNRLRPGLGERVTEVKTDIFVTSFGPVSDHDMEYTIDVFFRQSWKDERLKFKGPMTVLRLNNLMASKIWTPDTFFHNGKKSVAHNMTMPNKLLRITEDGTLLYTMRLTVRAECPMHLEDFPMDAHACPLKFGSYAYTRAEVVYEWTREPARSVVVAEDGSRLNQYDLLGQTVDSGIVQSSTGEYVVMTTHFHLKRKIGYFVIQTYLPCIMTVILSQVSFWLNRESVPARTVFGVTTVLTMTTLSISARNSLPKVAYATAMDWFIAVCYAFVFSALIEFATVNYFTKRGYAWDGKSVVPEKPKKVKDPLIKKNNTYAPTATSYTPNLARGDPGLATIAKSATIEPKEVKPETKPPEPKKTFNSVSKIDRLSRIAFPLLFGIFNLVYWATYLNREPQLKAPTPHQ
Assay [9] addresses T4, Cysteinyl leukotriene receptor 1 (Cavia porcellus, UniProt Q2NNR5).
T4 sequence (Q2NNR5 whole entry): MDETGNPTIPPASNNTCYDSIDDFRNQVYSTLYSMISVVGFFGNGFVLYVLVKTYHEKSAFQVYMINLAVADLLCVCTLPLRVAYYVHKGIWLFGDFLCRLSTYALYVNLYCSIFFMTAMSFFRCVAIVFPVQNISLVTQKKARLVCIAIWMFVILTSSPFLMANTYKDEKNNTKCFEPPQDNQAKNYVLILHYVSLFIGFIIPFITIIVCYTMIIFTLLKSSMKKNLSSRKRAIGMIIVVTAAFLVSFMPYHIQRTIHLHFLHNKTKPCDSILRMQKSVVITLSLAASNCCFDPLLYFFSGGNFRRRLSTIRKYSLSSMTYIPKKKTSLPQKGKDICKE

The target of assay [10] is Delta-type opioid receptor (Rattus norvegicus, UniProt P33533).
Chain of Delta-type opioid receptor (P33533 whole entry): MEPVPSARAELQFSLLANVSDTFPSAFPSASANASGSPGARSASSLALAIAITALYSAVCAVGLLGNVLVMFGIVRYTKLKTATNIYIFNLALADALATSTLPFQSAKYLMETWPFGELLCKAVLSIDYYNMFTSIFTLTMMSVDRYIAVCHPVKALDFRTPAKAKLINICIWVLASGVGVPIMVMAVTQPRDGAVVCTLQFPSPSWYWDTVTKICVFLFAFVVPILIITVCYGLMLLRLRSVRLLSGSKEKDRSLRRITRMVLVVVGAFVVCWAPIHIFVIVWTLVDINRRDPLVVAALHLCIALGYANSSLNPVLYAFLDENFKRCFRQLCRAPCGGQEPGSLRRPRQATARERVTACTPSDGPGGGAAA

Chain of Adenosine receptor A2a (P30543 whole entry): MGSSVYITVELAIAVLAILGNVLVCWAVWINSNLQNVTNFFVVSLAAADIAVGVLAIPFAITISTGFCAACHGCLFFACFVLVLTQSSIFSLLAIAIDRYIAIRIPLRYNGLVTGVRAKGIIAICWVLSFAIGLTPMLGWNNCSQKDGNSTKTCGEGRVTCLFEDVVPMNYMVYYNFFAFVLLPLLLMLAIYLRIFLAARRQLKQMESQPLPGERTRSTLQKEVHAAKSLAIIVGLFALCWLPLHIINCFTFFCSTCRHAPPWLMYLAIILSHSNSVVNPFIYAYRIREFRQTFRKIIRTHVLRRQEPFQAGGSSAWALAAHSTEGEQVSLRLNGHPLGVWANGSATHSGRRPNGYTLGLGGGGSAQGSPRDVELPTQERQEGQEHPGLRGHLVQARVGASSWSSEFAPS
Chain of 5-hydroxytryptamine receptor 2A (P14842 whole entry): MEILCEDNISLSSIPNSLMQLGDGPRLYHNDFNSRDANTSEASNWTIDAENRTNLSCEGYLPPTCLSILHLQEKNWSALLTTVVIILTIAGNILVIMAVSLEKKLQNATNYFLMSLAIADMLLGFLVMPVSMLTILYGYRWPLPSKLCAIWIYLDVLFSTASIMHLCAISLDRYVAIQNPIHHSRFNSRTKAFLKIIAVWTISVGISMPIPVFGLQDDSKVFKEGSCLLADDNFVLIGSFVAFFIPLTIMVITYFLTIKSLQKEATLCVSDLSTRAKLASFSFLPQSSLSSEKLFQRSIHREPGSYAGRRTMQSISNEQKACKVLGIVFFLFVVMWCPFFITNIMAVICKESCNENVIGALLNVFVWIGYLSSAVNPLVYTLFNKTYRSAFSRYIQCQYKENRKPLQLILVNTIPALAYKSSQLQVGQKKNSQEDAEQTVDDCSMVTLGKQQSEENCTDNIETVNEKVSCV
Chain of D(2) dopamine receptor (P61169 whole entry): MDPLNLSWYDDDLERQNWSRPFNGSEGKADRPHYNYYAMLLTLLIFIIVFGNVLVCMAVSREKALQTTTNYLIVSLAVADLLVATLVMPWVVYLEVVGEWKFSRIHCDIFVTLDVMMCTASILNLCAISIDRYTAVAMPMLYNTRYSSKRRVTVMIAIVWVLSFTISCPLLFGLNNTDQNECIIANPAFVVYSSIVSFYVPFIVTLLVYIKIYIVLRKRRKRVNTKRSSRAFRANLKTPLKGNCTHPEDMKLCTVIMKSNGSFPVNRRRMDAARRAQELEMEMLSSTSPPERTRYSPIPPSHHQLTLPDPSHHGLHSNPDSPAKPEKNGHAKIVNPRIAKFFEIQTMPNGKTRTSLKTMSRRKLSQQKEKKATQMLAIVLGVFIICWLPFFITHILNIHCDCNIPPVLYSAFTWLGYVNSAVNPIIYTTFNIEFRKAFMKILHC
Chain of D(1A) dopamine receptor (P18901 whole entry): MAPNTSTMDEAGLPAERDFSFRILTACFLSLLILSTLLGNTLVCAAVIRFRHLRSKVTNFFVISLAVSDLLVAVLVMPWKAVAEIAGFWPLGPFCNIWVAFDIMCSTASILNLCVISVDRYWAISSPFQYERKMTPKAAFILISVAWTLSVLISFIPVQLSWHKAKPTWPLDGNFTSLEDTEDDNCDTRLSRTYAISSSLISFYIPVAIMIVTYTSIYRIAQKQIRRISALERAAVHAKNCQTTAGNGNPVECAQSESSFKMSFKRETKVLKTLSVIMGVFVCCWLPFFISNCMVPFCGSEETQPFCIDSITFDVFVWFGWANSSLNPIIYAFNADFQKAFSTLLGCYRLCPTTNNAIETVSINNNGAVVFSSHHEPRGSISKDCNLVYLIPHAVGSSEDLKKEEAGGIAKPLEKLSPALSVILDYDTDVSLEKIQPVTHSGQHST
Chain of Mu-type opioid receptor (P33535 whole entry): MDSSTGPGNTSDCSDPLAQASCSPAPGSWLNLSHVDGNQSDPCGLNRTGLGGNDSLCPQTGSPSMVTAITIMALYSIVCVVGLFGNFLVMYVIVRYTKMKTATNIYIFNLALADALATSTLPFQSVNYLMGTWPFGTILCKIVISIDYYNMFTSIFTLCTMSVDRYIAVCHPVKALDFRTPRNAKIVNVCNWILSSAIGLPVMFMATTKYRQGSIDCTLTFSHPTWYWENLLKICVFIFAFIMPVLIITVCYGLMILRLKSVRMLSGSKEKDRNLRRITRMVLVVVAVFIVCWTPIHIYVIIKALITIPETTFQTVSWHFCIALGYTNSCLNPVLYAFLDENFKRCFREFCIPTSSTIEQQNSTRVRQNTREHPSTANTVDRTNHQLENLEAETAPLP
Chain of Substance-P receptor (Rattus norvegicus) (P14600 whole entry, looked up): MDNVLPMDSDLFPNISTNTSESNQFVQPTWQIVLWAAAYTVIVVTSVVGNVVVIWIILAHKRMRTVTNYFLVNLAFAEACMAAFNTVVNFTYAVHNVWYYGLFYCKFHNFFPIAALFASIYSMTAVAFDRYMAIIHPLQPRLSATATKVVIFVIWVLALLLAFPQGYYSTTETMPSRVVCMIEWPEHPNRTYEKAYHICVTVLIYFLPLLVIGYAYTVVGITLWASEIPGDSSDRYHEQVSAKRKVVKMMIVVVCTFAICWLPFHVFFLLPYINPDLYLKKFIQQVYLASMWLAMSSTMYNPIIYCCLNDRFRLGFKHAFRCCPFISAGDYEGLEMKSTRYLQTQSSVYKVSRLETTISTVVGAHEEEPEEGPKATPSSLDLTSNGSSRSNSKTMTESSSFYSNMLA
Chain of 5-hydroxytryptamine 1D receptor (Q8MI13 whole entry): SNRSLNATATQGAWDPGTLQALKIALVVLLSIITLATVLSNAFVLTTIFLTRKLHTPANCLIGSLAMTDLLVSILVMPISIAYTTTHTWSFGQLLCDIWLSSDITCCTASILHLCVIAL

As for `N=C(N)NC(=O)c1nc(Cl)c(N2CCCCCC2)nc1N`, the Ki in [1] is 6.7 µM; in [2], more than 10 µM; in assay [3], more than 10 µM; on Mu-type opioid receptor, 0.061 µM; on Adenosine receptor A1, 1.2 µM; in [4] it was more than 10 µM. The Ki on Adenosine receptor A2a was 4.6 µM; in assay [5], 0.4 µM; at D(1A) dopamine receptor, more than 10 µM; in assay [6], 3.9 µM; at D(2) dopamine receptor it was more than 10 µM; in [7], 4.7 µM. In addition, the results for the inhibition constant Ki in assay [8], in assay [9] and in assay [10] were more than 10 µM, more than 10 µM and 1 µM, respectively.

Take `N=C(N)NC(=O)c1nc(Cl)c(N)nc1N` [3,5-diamino-N-carbamimidoyl-6-chloropyrazine-2-carboxamide]: the Ki in assay [1] is more than 10 µM; in assay [2], more than 10 µM; in assay [3] it was more than 10 µM; on Mu-type opioid receptor, more than 10 µM; on Adenosine receptor A1, 11 µM; in assay [4], more than 10 µM. Further, the inhibition constant Ki was 17 µM at Adenosine receptor A2a; more than 10 µM in assay [5]; more than 10 µM at D(1A) dopamine receptor; more than 10 µM in [6]; more than 10 µM on D(2) dopamine receptor; more than 10 µM in assay [7]. Moreover, the Ki in [8], in [9] and in assay [10] was more than 10 µM throughout.

For `NC(=NCc1ccccc1)NC(=O)c1nc(Cl)c(N)nc1N` [NSC_108107], the Ki is more than 10 µM in [1]; more than 10 µM in assay [2]; 2 µM in [3]; 1.1 µM on Mu-type opioid receptor; 0.98 µM at Adenosine receptor A1; more than 10 µM in assay [4]. Moreover, the inhibitory constant (Ki) on Adenosine receptor A2a is 6.4 µM; in [5], 1.4 µM; on D(1A) dopamine receptor it was more than 10 µM; in assay [6], more than 10 µM; at D(2) dopamine receptor, 7.6 µM; in assay [7], 2.8 µM. For the same compound, the Ki in assay [8], in assay [9] and in assay [10] was more than 10 µM each time.

The values above are taken from BindingDB's records for doi:10.3109/10799899109064686 (Center For Bio-Pharmaceutical Sciences, 1991).
